According to patent US8022178B2, “Modified self-assembling peptides” (Massachusetts Institute of Technology, priority 2006, dated 2011):

How the values were obtained:
[1] = test system: adipose derived stem cells (ADSC); assay: ADSC culture in functionalized peptide matrixes: cell migration; format: cell-based, human
Procedure: 3-dimensional adipose derived stem cells (ADSC) were cultured in the functionalized peptide matrixes (Table 24) and cell maintenance ability of functionalized self-assembling peptide matrixes was evaluated. ADSCs were suspended in 10% sucrose solution and mixed with peptide solution selected from Table 25. The cell suspended peptide solutions were transferred to the culture inserts (10 mm diameter, Millicell-CM, Millipore) and gels were immediately formed using cell culture medium. Cell numbers seeded in the well were 4×10^4 cells/well.
The peptide solutions shown in Table 25 were loaded in the culture inserts (10 mm diameter, Millicell-CM, Millipore) and gels were formed using cell culture medium (DMEM-F12+10% FBS, Gibco). ADSC were plated at 4×10^4 cells on the inserts and cultured up to 7 Days.
Although the cells were seeded on the surface of the matrix, the cells were migrated well into the matrix.

[2] = test system: bone defects of 4 mm diameter in rat skull; assay: Rat skull bone defect filled with hydrogel, bone formation evaluation; format: in vivo; conditions: grade 1 more than 80%, 2 more than 50%, 3 weak in X-ray
Procedure: The effects of the functionalized peptide were evaluated in vivo in rats. 6 weeks male rat sculls were used for this evaluation (two samples for each experiment).
The rats in this study underwent creation of two bone defects of 4 mm diameter, bilaterally in each skull. Some of the defects were left empty as controls.
The peptide solution was directly injected to the defects without cells. The peptide solution formed a hydrogel immediately after injection by the salt in the body fluid (e.g., blood, lymph fluid, and the like).
Bone Formation Evaluation: All animals from each group were euthanized 2 and 4 weeks later. The X-ray image of the skulls were taken. The skulls were collected, hemisected, and fixed in formalin. The defects were then trimmed, decalcified, embedded in paraffin, stained by HE staining method, and evaluated by a Veterinary pathologist, who characterized by histomorphometry the type of tissue contained within the defects. The degree of bone regeneration is graded as Complete recovery, 1 (more than 80%), 2 (more than 50%), or 3 (weak in X-ray).

[3] = test system: chick Chorioallantoic Membrane; assay: Chorioallantoic Membrane (CAM) assay of angiogenesis; format: in vivo, chicken; conditions: hydrogel placed Day 8, histology Day 12, FIG. 30
Procedure: In vivo study of angiogenesis was performed using Chorioallantoic Membrane (CAM) assay. At Day 8 of fertilized chicken egg incubation, hydrogels of 10 mm diameter with 1 mm thickness were transferred to chick Chorioallantoic Membrane. The hydrogels were selected from Table 19 and gels were formed before the transfer. On Day 12, CAMs were collected for histology. The angiogenesis inside and below the hydrogel were evaluated by histological cross section.

[4] = test system: Mouse preosteoblast cell line (MC3T3-E1); assay: Osteocalcin secreted in culture medium (EIA); format: cell-based; conditions: FIG. 17 compared to FIG. 6; versus PRGmx or PRFmx
Procedure: Mouse preosteoblast cell line (MC3T3-E1) was used to compare the proliferation and differentiation effects of the motifs with RAD16-1 and Collagen-I hydrogels as controls. The proliferation was measured by DNA contents and the differentiation effects were evaluated using Alkaline phosphatase (ALP) activity and secreted Osteocalcin. Alkaline phosphatase is known to be differentiation marker of osteoblast in earlier stage. Secreted Osteocalcin is known to be differentiation marker of osteoblast in later stage and its activity is correlated with the bone mineralization.
1% RAD16-I solution [self-assembling peptide solution] was obtained as RAD16-I (Puramatrix™, 3DM Inc./BD Bioscience). The functionalized peptides of Table 2 were dissolved in water at final concentration of 1% (v/w). The functionalized peptide solutions were then mixed with 1% RAD16-I solution at a ratio of 1:1 (Table 4). Each peptide solution was loaded in the Culture plate inserts (10 mm diameter, Millicell-CM, Millipore). […]
Cell proliferation was evaluated using DNA contents in the hydrogel using PicoGreen dsDNA Kits (Molecular Probes). ALP activity was quantitatively measured from cell lysis using Alkaline Phosphatase Fluorescence Assay Kit (Sigma). Osteocalcin was measured from cell culture medium using Mouse Osteocalcin EIA Kit (Biomedical Technologies Inc.).

Row | Substance | migration depth of cells ([1]; 7 days of culturing, FIG. 34) | portion of the cell migrated into the hydrogels ([1]; 7 days, compared to PRGmx) | Average score (degree of bone regeneration) ([2]; four weeks) | Average score (degree of bone regeneration) ([2]; two weeks) | angiogenesis inside and below the hydrogel [3] | effect to promote differentiation (osteocalcin) [4]
1 | Ac(RADA)4-CONH2 | migrated less deeper than PRGmx | larger | 1.0 | 3.0 | no angiogenesis both inside and below the hydrogel | –
2 | Ac(RADA)4GGFHRRIKA-CONH2 (Ac-RADARADARADARADAGGFHRRIKA-NH2) [FHR = 1% solution; FHR-2P = 2% solution] | – | – | – | – | – | not so strong
